Measurements from ChEMBL document CHEMBL1201862, “PubChem BioAssay data set” (2004).
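Dose response: 5 concentrations. Exposure: 48 h. Format: 96-well plates. Endpoint: linear interpolation; highest concentration if not reached. The concentration for 50% growth inhibition is given as GI50.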 Calls of active or inactive are those of the source. Rule as the data show it: active = GI50 up to about 1.1 µM and inactive = higher.

Experiments:
Assay in all cases: NCI anticancer screen, dose series, 48 h
[1] = tested on: HCC 2998
[2] = tested on: LOX IMVI
[3] = tested on: DU-145
[4] = tested on: SK-MEL-28
[5] = tested on: RXF 393
[6] = tested on: CAKI-1
[7] = tested on: NCI-H226
[8] = tested on: COLO 205
[9] = tested on: SF-295
[10] = tested on: HT-29
[11] = tested on: OVCAR-4
[12] = tested on: A549
[13] = tested on: HL-60
[14] = tested on: SR
[15] = tested on: NCI-H23
[16] = tested on: A498
[17] = tested on: Malme-3M
[18] = tested on: MOLT-4
[19] = tested on: SNB-19
[20] = tested on: EKVX

| Compound | GI50 [1] | GI50 [2] | GI50 [3] | GI50 [4] | GI50 [5] | GI50 [6] | GI50 [7] | GI50 [8] | GI50 [9] | GI50 [10] | GI50 [11] | GI50 [12] | GI50 [13] | GI50 [14] | GI50 [15] | GI50 [16] | GI50 [17] | GI50 [18] | GI50 [19] | GI50 [20] |
| --- | --- | --- | --- | --- | --- | --- | --- | --- | --- | --- | --- | --- | --- | --- | --- | --- | --- | --- | --- | --- |
| COc1ccc(-c2c(C(=O)Nc3ccccc3)c(-c3ccccc3)n(C3OC(CO)C(O)C(O)C3O)c(=S)c2C#N)cc1 (stereo not given) | > 100 µM (inactive) | > 100 µM (inactive) | > 100 µM (inactive) | > 100 µM (inactive) | > 100 µM (inactive) | > 100 µM (inactive) | > 100 µM (inactive) | > 100 µM (inactive) | > 100 µM (inactive) | > 100 µM (inactive) | > 100 µM (inactive) | > 100 µM (inactive) | > 100 µM (inactive) | > 100 µM (inactive) | > 100 µM (inactive) | > 100 µM (inactive) | > 100 µM (inactive) | > 100 µM (inactive) | > 100 µM (inactive) | > 100 µM (inactive) |
| CCCCC1(N=[N+]=[N-])C(=O)C2C=CC=C3c4ccccc4N(C1=O)C32 (stereo not given) | 15.6 µM (inactive) | 17.9 µM (inactive) | 58.5 µM (inactive) | 78.2 µM (inactive) | 13.7 µM (inactive) | 19.8 µM (inactive) | 21.3 µM (inactive) | 18.5 µM (inactive) | 24.7 µM (inactive) | 14.1 µM (inactive) | 21.6 µM (inactive) | 19.5 µM (inactive) | 34 µM (inactive) | > 10 µM (inactive) | 14.4 µM (inactive) | > 10 µM (inactive) | 23 µM (inactive) | 15.3 µM (inactive) | 22.1 µM (inactive) | 17.8 µM (inactive) |
| COc1ccc2oc(=O)c(-c3nc4ccccc4s3)cc2c1 | > 100 µM (inactive) | 17.8 µM (inactive) | 21.8 µM (inactive) | > 59.3 µM (inactive) | 12.2 µM (inactive) | 18.5 µM (inactive) | 19.2 µM (inactive) | 54.1 µM (inactive) | 21.5 µM (inactive) | 13.6 µM (inactive) | 20.8 µM (inactive) | 19.9 µM (inactive) | > 100 µM (inactive) | 22 µM (inactive) | 27.5 µM (inactive) | 20.8 µM (inactive) | 8.61 µM (inactive) | > 77.6 µM (inactive) | 46.7 µM (inactive) | 19.2 µM (inactive) |
| CCC(C)C1NC(=O)C(NC(=O)C(CC(C)C)N(C)C(=O)[C@@H]2C=CCN2C(=O)[C@H](C)O)C(C)OC(=O)[C@H](Cc2ccc(OC)cc2)N(C)C(=O)[C@@H]2CCCN2C(=O)[C@H](CC(C)C)NC(=O)C(C)C(=O)[C@H](C(C)C)OC(=O)CC1O (stereo not given in full) | 0.00306 µM (active) | 0.00242 µM (active) | 0.00501 µM (active) | 0.00138 µM (active) | < 0.01 µM (active) | 0.00984 µM (active) | < 0.01 µM (active) | 0.00143 µM (active) | 0.00248 µM (active) | 0.00252 µM (active) | 0.00234 µM (active) | 0.004 µM (active) | 0.00299 µM (active) | 0.000216 µM (active) | 0.00184 µM (active) | 0.00671 µM (active) | 0.00219 µM (active) | 0.00147 µM (active) | 0.00374 µM (active) | < 0.01 µM (active) |
